This is an account of results in PubChem BioAssay AID248 (DTP/NCI, 2004).

This test deals with L1210 leukemia ip in BDF1 mice, survival T/C. Put plainly: NCI In Vivo Anticancer Drug Screen. Data for tumor model L1210 Leukemia (intraperitoneal) in B6D2F1 (BDF1) mice. Particulars: endpoint: mean survival time, higher = longer survival. An outline of the steps: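 Survival endpoint. Drug-treated group vs vehicle group, expressed as T divided by C. Tumor passaged by transplantation.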

The mark [1] stands for this setting: dose: 100.0 mg/kg/injection, schedule: Q01DX009 (ip), vehicle: other.
Where [2] appears, read: dose: 100.0 mg/kg/injection, schedule: Q04DX002 (ip), vehicle: Klucel (hydroxypropylcellulose) (HPC).
Setting [3] is: dose: 100.0 mg/kg/injection, schedule: Q04DX003 (ip), vehicle: other.
[4] abbreviates: dose: 200.0 mg/kg/injection, schedule: Q01DX009 (ip), vehicle: other.
Where [5] appears, read: dose: 200.0 mg/kg/injection, schedule: Q04DX002 (ip), vehicle: Klucel (hydroxypropylcellulose) (HPC).
Where [6] appears, read: dose: 200.0 mg/kg/injection, schedule: Q04DX003 (ip), vehicle: other.
Where [7] appears, read: dose: 400.0 mg/kg/injection, schedule: Q01DX009 (ip), vehicle: other.
Setting [8] is: dose: 400.0 mg/kg/injection, schedule: Q04DX002 (ip), vehicle: Klucel (hydroxypropylcellulose) (HPC).
The mark [9] stands for this setting: dose: 400.0 mg/kg/injection, schedule: Q04DX003 (ip), vehicle: other.
[10] abbreviates: dose: 100.0 mg/kg/injection, schedule: Q04DX003 (ip), vehicle: saline.
Where [11] appears, read: dose: 200.0 mg/kg/injection, schedule: Q04DX003 (ip), vehicle: saline.
Setting [12] is: dose: 400.0 mg/kg/injection, schedule: Q04DX003 (ip), vehicle: saline.
The mark [13] stands for this setting: dose: 100.0 mg/kg/injection, schedule: Q01DX001 (ip), vehicle: saline.
Setting [14] is: dose: 200.0 mg/kg/injection, schedule: Q01DX001 (ip), vehicle: saline.

Several values for one entry are separate records, joined by “and”; a condition that tells them apart may be missing. Equal entries are not always repeated. Inconclusive results and toxic doses are left out.

Take `COC(=O)c1cc2nc(C(C)C)n(Cc3ccccc3)c2cc1C(=O)OC`: the T/C reads like this: (dose: 100.0 mg/kg/injection, schedule: Q01DX001 (ip), vehicle: other) 99 % of control; under setting [1], 104 % of control and 87 % of control; under setting [2], 105 % of control; (dose: 100.0 mg/kg/injection, schedule: Q04DX002 (ip), vehicle: other) 102 % of control and 91 % of control; under setting [3], 107 % of control; (dose: 200.0 mg/kg/injection, schedule: Q01DX001 (ip), vehicle: other) 100 % of control. For the same compound, the T/C by setting is: under setting [4], 101 % of control and 90 % of control; under setting [5], 98 % of control; (dose: 200.0 mg/kg/injection, schedule: Q04DX002 (ip), vehicle: other) 95 % of control and 108 % of control; under setting [6], 109 % of control; (dose: 400.0 mg/kg/injection, schedule: Q01DX001 (ip), vehicle: other) 89 % of control; under setting [7], 97 % of control and 106 % of control. Further, the T/C runs as follows: under setting [8], 102 % of control; (dose: 400.0 mg/kg/injection, schedule: Q04DX002 (ip), vehicle: other) 95 % of control and 107 % of control; under setting [9], 105 % of control.
Consider `CO/C(N)=N\C(=O)NC1CC(OC(=O)c2ccc(C)cc2)C(COC(=O)c2ccc(C)cc2)O1` (stereo not drawn), for which the T/C runs as follows: under setting [10], 98 % of control; under setting [11], 104 % of control; under setting [12], 96 % of control.
On to `C=COC(=O)NC(CCSC)C(=O)O` (stereo not drawn), for which the T/C (dose: 50.0 mg/kg/injection, schedule: Q01DX001 (ip), vehicle: saline) is 101 % of control and the T/C under setting [13] is 98 % of control.
On to `COc1cc2cc3c4cc(OC)c(OC)cc4cc[n+]3c(/C=C\c3ccccc3O)c2cc1OC`, for which the T/C was 106 % of control (dose: 50.0 mg/kg/injection, schedule: Q01DX001 (ip), vehicle: carboxymethylcellulose (CMC)); 114 % of control (dose: 100.0 mg/kg/injection, schedule: Q01DX001 (ip), vehicle: carboxymethylcellulose (CMC)); 100 % of control and 104 % of control (dose: 100.0 mg/kg/injection, schedule: Q04DX002 (ip), vehicle: carboxymethylcellulose (CMC)); 109 % of control and 118 % of control (dose: 100.0 mg/kg/injection, schedule: Q04DX003 (ip), vehicle: carboxymethylcellulose (CMC)); 119 % of control (dose: 200.0 mg/kg/injection, schedule: Q01DX001 (ip), vehicle: carboxymethylcellulose (CMC)); 100 % of control and 103 % of control (dose: 200.0 mg/kg/injection, schedule: Q04DX002 (ip), vehicle: carboxymethylcellulose (CMC)). Moreover, the T/C runs as follows: (dose: 200.0 mg/kg/injection, schedule: Q04DX003 (ip), vehicle: carboxymethylcellulose (CMC)) 110 % of control and 123 % of control; (dose: 400.0 mg/kg/injection, schedule: Q01DX001 (ip), vehicle: carboxymethylcellulose (CMC)) 116 % of control; (dose: 400.0 mg/kg/injection, schedule: Q04DX002 (ip), vehicle: carboxymethylcellulose (CMC)) 97 % of control and 104 % of control; (dose: 400.0 mg/kg/injection, schedule: Q04DX003 (ip), vehicle: carboxymethylcellulose (CMC)) 110 % of control and 115 % of control.
In the case of `NC(=O)CC1=NCCc2ccccc21`, the T/C under setting [13] was 108 % of control and the T/C under setting [14] is 108 % of control.
Consider `CC[NH-].CC[NH-].[Br][Pt+2][Br]`, for which the T/C under setting [3] was 122 % of control and the T/C under setting [6] is 105 % of control.
For the compound `O=C(Cc1ccccc1)Nc1ccc(Nc2ccccc2)cc1`, the T/C under setting [5] is 100 % of control and the T/C under setting [8] was 95 % of control.
As to `O=C(O)C1CCCC2C(O)CCC(O)C12` (stereo not drawn), the T/C by setting is: under setting [13], 107 % of control; under setting [10], 105 % of control; under setting [14], 93 % of control; under setting [11], 111 % of control; (dose: 400.0 mg/kg/injection, schedule: Q01DX001 (ip), vehicle: saline) 91 % of control; under setting [12], 105 % of control.
With `O=NN(CCF)C(=O)NCCCl`, the T/C reads like this: (dose: 9.0 mg/kg/injection, schedule: Q01DX001 (ip), vehicle: Klucel (hydroxypropylcellulose) (HPC)) 185 % of control and 220 % of control; (dose: 14.0 mg/kg/injection, schedule: Q01DX001 (ip), vehicle: Klucel (hydroxypropylcellulose) (HPC)) 352 % of control and 355 % of control; (dose: 21.0 mg/kg/injection, schedule: Q01DX001 (ip), vehicle: Klucel (hydroxypropylcellulose) (HPC)) 419 % of control and 564 % of control; (dose: 32.0 mg/kg/injection, schedule: Q01DX001 (ip), vehicle: Klucel (hydroxypropylcellulose) (HPC)) 746 % of control.
Turning to `CCCCCCCCCCCCCCCCCC[N+](C)(C)Cc1cc(=O)c(O)co1`, the T/C (dose: 6.25 mg/kg/injection, schedule: Q01DX009 (ip), vehicle: saline) was 89 % of control; the T/C (dose: 12.5 mg/kg/injection, schedule: Q01DX009 (ip), vehicle: saline) is 106 % of control; the T/C (dose: 25.0 mg/kg/injection, schedule: Q01DX009 (ip), vehicle: saline) was 99 % of control.
`CSC(=N)N(C)Cc1ccccc1`: the T/C (dose: 9.37 mg/kg/injection, schedule: Q01DX009 (ip), vehicle: saline) was 103 % of control; the T/C (dose: 18.75 mg/kg/injection, schedule: Q01DX009 (ip), vehicle: saline) is 111 % of control; the T/C (dose: 18.75 mg/kg/injection, schedule: Q04DX003 (ip), vehicle: saline) is 102 % of control; the T/C (dose: 37.5 mg/kg/injection, schedule: Q01DX009 (ip), vehicle: saline) was 108 % of control; the T/C (dose: 37.5 mg/kg/injection, schedule: Q04DX003 (ip), vehicle: saline) was 96 % of control; the T/C (dose: 75.0 mg/kg/injection, schedule: Q01DX001 (ip), vehicle: saline) is 102 % of control. The T/C (dose: 75.0 mg/kg/injection, schedule: Q04DX003 (ip), vehicle: saline) is 88 % of control.
For the compound `CCCCCC(=O)N1CCCCC1CC` (stereo not drawn), the T/C by setting is: under setting [2], 92 % of control; under setting [5], 92 % of control.
With `COc1ccc(/C=C2\NC(=O)NC2=O)cc1Br`, the T/C is, setting by setting: (dose: 100.0 mg/kg/injection, schedule: Q01DX009 (ip), vehicle: Klucel (hydroxypropylcellulose) (HPC)) 93 % of control; (dose: 200.0 mg/kg/injection, schedule: Q01DX009 (ip), vehicle: Klucel (hydroxypropylcellulose) (HPC)) 96 % of control; (dose: 400.0 mg/kg/injection, schedule: Q01DX009 (ip), vehicle: Klucel (hydroxypropylcellulose) (HPC)) 91 % of control.
For `O=C(COc1ccc([N+](=O)[O-])cc1)Nc1cccnc1`, the T/C was 96 % of control (dose: 100.0 mg/kg/injection, schedule: Q04DX003 (ip), vehicle: saline with Tween-80); 95 % of control (dose: 200.0 mg/kg/injection, schedule: Q04DX003 (ip), vehicle: saline with Tween-80); 96 % of control (dose: 400.0 mg/kg/injection, schedule: Q04DX003 (ip), vehicle: saline with Tween-80).
In the case of `C1CSCSC1`, the T/C is, setting by setting: (dose: 12.5 mg/kg/injection, schedule: Q01DX009 (ip), vehicle: Klucel (hydroxypropylcellulose) (HPC)) 100 % of control; (dose: 12.5 mg/kg/injection, schedule: Q04DX003 (ip), vehicle: Klucel (hydroxypropylcellulose) (HPC)) 101 % of control; (dose: 25.0 mg/kg/injection, schedule: Q01DX009 (ip), vehicle: Klucel (hydroxypropylcellulose) (HPC)) 95 % of control; (dose: 25.0 mg/kg/injection, schedule: Q04DX003 (ip), vehicle: Klucel (hydroxypropylcellulose) (HPC)) 97 % of control; (dose: 50.0 mg/kg/injection, schedule: Q04DX003 (ip), vehicle: Klucel (hydroxypropylcellulose) (HPC)) 100 % of control.
As for `CC1(O)CC2CCC1C2` (stereo not drawn), the T/C is, setting by setting: under setting [1], 102 % of control; (dose: 100.0 mg/kg/injection, schedule: Q01DX009 (ip), vehicle: saline with Tween-80) 92 % of control; under setting [3], 95 % of control; under setting [4], 120 % of control; (dose: 200.0 mg/kg/injection, schedule: Q01DX009 (ip), vehicle: saline with Tween-80) 106 % of control; under setting [6], 100 % of control. The T/C by setting is: under setting [7], 104 % of control; (dose: 400.0 mg/kg/injection, schedule: Q01DX009 (ip), vehicle: saline with Tween-80) 92 % of control; under setting [9], 91 % of control.
